Key:
DU-145 = test: NCI-60 one-dose screen; assay type: cell-based; conditions: Homo sapiens; Prostate DU-145, 10 μM, 48 h; read-out: Percent growth inhibition
Protocol: (§1) Compounds 1 and 2 were submitted to the National Cancer Institute NCI-60 Tumor Cell Screening Program (NCI number 800,700 and 800,701, respectively) for evaluation against the 60 cell line NCI panel at a single dose of 10 μM. […] Leukemia and breast cancer cell lines comprised the only cancer groups that were uniformly sensitive to both 1 and 2, with the greatest sensitivity seen in the leukemia SR cell line.
(§2) Compounds 1 and 2 were submitted to the NCI for growth inhibition screening against its panel of 60 cancer cell lines. The NCI screening protocol has extensively been described [[53], [54], [55], [56]]. Briefly, cancerous cell lines were grown in RPMI 1640 medium containing 5% fetal bovine serum and 2 mM L-glutamine. Depending on the doubling time of each cell line, 5000–40,000 cells were seeded in 96-well plates for 24 h. Cells were then treated with compounds 1 or 2 at a concentration of 10 μM and incubated for 48 h at 37 °C in a humidified atmosphere containing 5% CO2. The cells were then fixed and stained with sulforhodamine B (SRB) to determine their viability. The data were analyzed using a program called COMPARE to determine the percent growth inhibition of each compound.

4E-BP mRNA = test: qRT-PCR of 4E-BP mRNA in Drosophila S2 cells; assay type: cell-based; conditions: amino acid deprived, 10 μM, 6 h, vs DMSO control
Text: It is known that under normal nutrient conditions the cap-dependent translational inhibitor 4E-BP is not expressed. However stress such as nutrient deprivation is known to trigger the transcriptional induction of 4E-BP. It has recently been shown that GCN2 and its downstream transcription factor, ATF4, mediate 4E-BP induction under amino acid deprivation in Drosophila, S2 cells. To further investigate the downstream effects of 1 and 2 on the amino acid deprivation GCN2 − ATF4 − 4E-BP pathway, the levels of 4E-BP mRNA transcript were monitored. We performed qRT-PCR on Drosophila S2 cells.
Drosophila S2 cell lines were cultured at 25 °C in Schneider's medium (Life Technologies, 21,720,024) and supplemented with 1% penicillin-streptomycin (Life Technologies, 15,140,122). For amino acid deprivation experiments, Schneider's medium lacking amino acids (USBiological Life Sciences, S0100-03) was used. Cells were treated for 6 h with 10 μM inhibitor concatenation or DMSO.
Total RNA was extracted with TRIzol Reagent (Invitrogen, USA). For cDNA synthesis, 200 ng of RNA was transcribed using SuperScript First-Strand Synthesis Kit (Invitrogen, USA). PCR amplification was performed for 25 cycles using taq polymerase (Roche) according to manufacturer's protocol. […] Results were expressed as the relative expression of mRNA levels detected in control samples and were calculated using the ΔΔCt method.

[1] = Permeability assay (PAMPA); assay type: in vitro ADME; conditions: pH 7.4, 25 °C, <10 low, >10 high permeability
Protocol: GCN2 compound permeability was determined by PAMPA and was performed by Pharmaron, Inc. (Beijing, China). All compounds and control stock solutions were prepared in DMSO at a concentration of 10 mM. Testosterone and methotrexate were used as control compounds. Compound stock solutions were diluted with PBS (pH 7.4) to a final concentration of 10 μM. A 1.8% solution (w/v) of lecithin in dodecane was prepared and sonicated to ensure a complete dissolution. 5 μL of the lecithin/dodecane mixture were pipetted into each acceptor plate well (top compartment). Immediately after the application of the artificial membrane (within 10 min), 300 μL of PBS (pH 7.4) solution were added to each well of the acceptor plate. 300 μL of drug-containing solutions were added to each well of the donor plate (bottom compartment) in triplicate. The plate lid was replaced and incubated at 25 °C, 60 rpm for 16 h. After incubation, aliquots of 50 μL from each well of acceptor and donor plate were transferred into a 96-well plate and 200 μL of methanol (containing IS: 100 nM Alprazolam, 200 nM Labetalol and 2 μM Ketoprofen) was added to each well. The plate was vortexed at 750 rpm for 100 s. Samples were centrifuged at 3220g for 20 min. The compound concentrations were determined by LC/MS/MS. The effective permeability (Pe), in units of centimeter per second were calculated using the following equation: logPe=logC×−ln1−drugacceptor/drugequilibrium

MALME-3M = test: NCI-60 one-dose screen; assay type: cell-based, human; conditions: 48 h; for inhibition at 10 µM: Homo sapiens, Melanoma MALME-3M, read-out: Percent growth inhibition; for increase in cell growth: melanoma cell line MALME-3 M, 10 μM
Protocol: as §1, §2

[2] = test system: phosphorylation of eIF2α (p-eIF2α); test: p-eIF2α reduction in amino acid deprived HEK293T cells (Western blot); assay type: cell-based; conditions: Homo sapiens, HEK-293T, amino acid deprived 4 h
Protocol: Compounds 1–9 were screened in a radiometric […] kinase assay against human GCN2 and other kinases involved in the UPR and ISR pathways (Table 1). […] The most soluble of the potent tool compounds (1 and 2) were selected for in vitro cell-based assays where the phosphorylation of eIF2α (p-eIF2α) was used as a readout for GCN2 inhibition.
HEK293T cells were purchased from the American Type Culture Collection and were cultured in Dulbecco's modified Eagle's medium (DMEM; GIBCO-11995) supplemented with 10% fetal bovine serum (FBS) (Corning™ 35015CV) and antibiotics (penicillin, 10,000 UI/ml and streptomycin, 10,000 UI/ml) (Life Technologies, 15,140,122). When indicated, cells were deprived of amino acids for 4 h with DMEM (DMEM; GIBCO-21013024) containing no glutamine, no methionine, no cysteine, and no FBS. Upon starvation, cells were treated with DMSO or compound. All cell lines were maintained in humidified incubators at 37 °C under 5% CO2.
Cells were lysed for 10 min on ice with RIPA lysis buffer (50 mM Tris (pH 8), 150 mM NaCl, 1% NP-40, 0.5% sodium deoxycholate, 0.1% SDS, containing Protease Inhibitor Cocktail (PIC) (ROCHE, 11836170001), 100 mM NaF, 2 mM NaVO4, 1 mM Na B-glycerophosphate). […] IC50s were calculated using dose response – Inhibition nonlinear regression algorithm [[inhibitor] vs. response] in GraphPad Prism 7 (GraphPad Software).

HL-60(TB) = test: NCI-60 one-dose screen; assay type: cell-based; conditions: Homo sapiens, HL-60, 48 h, read-out: Percent growth inhibition

CCn1cc(Nc2ncc3nnn(-c4ccc(C(=O)OC)cc4)c3n2)cn1 [Compound 1, Methyl 4-(5-((1-ethyl-1H-pyrazol-4-yl)amino)-3H-[1,2,3]triazolo[4,5-d]pyrimidin-3-yl)benzoate]
inhibition at 10 µM (DU-145): -9.96% | relative 4E-BP mRNA levels (4E-BP mRNA): decreased | Papp at 16 h, 10 μM [1]: 16 ×10⁻⁶ cm/s | inhibition at 10 µM (MALME-3M): -27.7% | increase in cell growth (MALME-3M): 27.7% | IC50 [2]: 0.0526 µM | inhibition at 10 µM (HL-60(TB)): 8.55%

CCOc1ccc(-n2nnc3cnc(Nc4cnn(CC)c4)nc32)cc1 [Compound 2, 3-(4-Ethoxyphenyl)-N-(1-ethyl-1H-pyrazol-4-yl)-3H-[1,2,3]triazolo[4,5-d]pyrimidin-5-amine]
inhibition at 10 µM (DU-145): 2.46% | relative 4E-BP mRNA levels (4E-BP mRNA): decreased | Papp at 16 h, 10 μM [1]: 15.1 ×10⁻⁶ cm/s | inhibition at 10 µM (MALME-3M): -37.2% | increase in cell growth (MALME-3M): 37.2% | IC50 [2]: 0.138 µM | inhibition at 10 µM (HL-60(TB)): 24.6%

Reference: publication PMC6197744, “Triazolo[4,5-d]pyrimidines as Validated General Control Nonderepressible 2 (GCN2) Protein Kinase Inhibitors Reduce Growth of Leukemia Cells” (Computational and Structural Biotechnology Journal, 2018)
